Consider three molecules from patent US20240316012A1, “METHODS FOR TREATING LYMPHOMA” (Northwestern University, priority 2023, published 2024).

For one experiment, the system named is ITK-SYK^+PD-1− lymphoma. The experiment is described as follows: Torin-1 inhibitor treatment in vivo of lymphoma-bearing NSG mice. The arrangement: species or system mouse. An excerpt:
FIGS. 2A-2F PD-1 represses mTOR and HIF1α in pre-malignant cells. […] White arrows indicate spleens. Color intensity represents the calculated MBq/ml uptake of ^18F-FDG. SUV, standardized uptake value ^18F-FDG, ^18F-fluordesoxyglucose. […] SUVmax denotes the maximum signal found in a single voxel across the entire tumor lesion. P=one-way ANOVA and two-sided Student's t-test. Shown are the mean±SEM and individual data points. […] CSI, chemical shift imaging. ROI, region of interest. […] P=two-sided Student's t-test. Shown are the mean±SD and individual data points. […] Spleen-derived single-cell suspensions were generated from ITK-SYK^CD4-creERT2 mice on d5 after TAM. Before fixation, anti-PD-L1 or control antibodies were added for four hours in vitro. […] On day 0, NSG mice received 1,000 ITK-SYK-expressing eGFP+ cells from an ITK-SYK^CD4-creERT2; Pdcd1^−/− mouse, FACS-sorted on d5 after TAM. Mice received 6 mg/kg Torin-1 or vehicle daily via intraperitoneal injection (n=6 mice per group) from day 3 p.i. on. P=two-sided log-rank test. FIG. 2A, Representative mice from two independent experiments. FIG. 2B, Pooled data from two independent experiments. FIG. 2C, Representative amplitudes from one experiment. FIG. 2D, Pooled data from two independent experiments. FIG. 2E, Representative data from two independent experiments with two biological replicates per group. […]

Another experiment concerns H3K27 acetylation. The experiment is described as follows: Flow cytometry for H3K27ac after in vitro culture with inhibitors. The format is cell-based, mouse. The following applies: exogenous acetate 100 μM; FIG. 11E. An excerpt:
Data are normalized to viable cell number and z-scores per metabolite. […] P=two-sided Student's t-test. The data are presented as the mean±SEM and individual data points for each animal. Cross indicates death of the animal. […] P=two-sided Student's t-test. Shown are the mean±SD and individual data points. […] Data are presented as mean±SD and individual data points. […] P=paired two-sided Student's t-test. Data are presented as the mean±SD. […] Data was normalized as in (a). P=two-sided Student's t-test. The data are presented as the mean±SEM. […] Experiment as in (h) (n=3 mice genotype). Data was normalized as in (a). P=two-sided Student's t-test. Data are presented as the mean±SD. FIGS. 3-D, Representative data from two independent experiments with n=3 biological replicates per group. FIG. 3E, Representative data from two independent experiments with two biological replicates per group. FIG. 3F, Representative data from two independent experiments. FIG. 3G, Representative data from two independent experiments with three biological replicates per group. FIG. 3H, Representative data from one experiment with four biological replicates per group. FIG. 3I, Representative data from one experiment with three biological replicates per group FIGS. 4A-4H show ACLY is a critical effector molecule downstream of PD-1. […] ITK-SYK^+ cells were FACS-sorted from ITK-[…]2 mice on d5 after TAM and 12 h anti-PD-L1 or isotype control antibody treatment (i.p., 200 μg). P=paired two-sided Student's t-test. Data are presented as the mean±SD. […] Spleen-derived single-cell suspensions were FACS-sorted from ITK-[…]2 mice on d5 after TAM and cultured in vitro overnight with anti-PD-L1 or isotype control antibodies and the PI3K inhibitors (“iPI3K”) Wortmannin (20 nM), LY294002 (20 μM), or DMSO. […] Spleen-derived lymphocytes, FACS-sorted from ITK-[…]2 and ITK-[…]2; Pdcd1^-/- mice on d5 after TAM were incubated for three days in vitro. P=two-sided Student's t-test. Data are presented as the mean±SD. […] Protein lysates were generated after 48 h in vitro culture. RNP, ribonucleoprotein. […] P=two-sided Logrank-test. […] ITK-SYK^+ cells were FACS-sorted from ITK-[…]2 (“Pdcd1^+/+”) and ITK-[…]2; Pdcd1^-/- (“Pdcd1^-/-”) mice on d5 after TAM, fixed, and processed for anti-H3K27ac ChIP-seq analysis. ChIP-seq, chromatin immunoprecipitation sequencing; TSS, transcription start site. FIG. 4B, Representative data from three independent experiments with three biological replicates per group. FIG. 4C, Representative data from two independent experiments with two biological replicates. FIGS. 4D and 4E, Representative data from 3 independent experiments. FIGS. 4F and 4G, Data from one experiment with n=5 mice per group. […] (8752, CST), and assessed by flow cytometry. […]

Experiment [1] deals with PDCD1-mutant lymphoma cells (primary CTCL). Nature of the experiment: Inhibitor treatment of human cells in vitro, division index, PDCD1-mutant CTCL cells. The format is cell-based. The following applies: 2-DG 1 mM, everolimus 0.1 μM, BMS-303141 10 μM; anti-CD3/anti-CD28 beads, 6 days; FIG. 7E. The protocol: (§1) FIGS. 7A-7H show ACLY dependency and AP-1 activation in human PDCD1 defective T-NHL. […] CNA, copy number aberrations. FIG. 7B GSEA for the indicated gene sets based on RNA-seq data from the 21 CTCL patients shown in (a). NES, normalized enrichment score; FDR, false discovery rate. […] P=one-way ANOVA and two-sided Student's t-test. Shown are the mean±SD and individual data points. […] FACS-sorted malignant cells were stimulated with anti-CD3/anti-CD28 beads, and 2-NBDG uptake was determined at the indicated time points. P=two-sided Student's t-test. Shown are the mean±SEM and individual data points. […] CFSE, carboxyfluorescein succinimidyl ester. P=two-sided Student's t-test. The data are presented as the mean±SEM and individual data points. […] Legend as in (5a). […] FIG. 7H GSEA for the indicated gene sets with RNA-seq data from 21 CTCL PDCD1mut” or “PDCD1 wt, and three patients with hyperprogression. NES, normalized enrichment score; FDR, false discovery rate. FIGS. 7A and 7B, Data from a single experiment with 21 patients. FIGS. 7C and 7D, Data from one experiment with three patients per group and three healthy donors. FIG. 7E, Data from one experiment with three patients and three healthy donors. FIGS. 7F and 7G, Data from one experiment with three patients per group. FIG. 7H, Data from a single experiment.
(§2) Isolation of primary human CTCL cells. This study was approved by the Northwestern University Institutional Review Board. Patients provided informed consent for inclusion in the study. […] The tumor burden for each patient was determined using well-validated clinical markers, taking whichever value was higher between Sezary cell counts or the CD26 negative cell number by clinical flow cytometry. These were analyzed in conjunction with white blood cell and absolute lymphocyte counts.
(§3) Inhibitor treatment of human cells in vitro Malignant CTCL cells and CD4^+ T cells from healthy donors were isolated as previously described. […] After 6 days, the cells were analyzed by flow cytometry, and the division index was determined using the FlowJo proliferation tool (v10.6, FlowJo LLC).

Experiment [2] concerns PD-1 wild-type tumors (primary CTCL). The experiment is described as follows: Inhibitor treatment of human cells in vitro, division index, PD-1 wild-type CTCL cells. In kind it is cell-based. The following applies: 2-DG 1 mM, everolimus 0.1 μM, BMS-303141 10 μM; 6 days; FIG. 7E. The protocol:
as §1, §2, §3

Take `CCC(=O)N1CCN(c2ccc(-n3c(=O)ccc4cnc5ccc(-c6cnc7ccccc7c6)cc5c43)cc2C(F)(F)F)CC1` [Torin-1]: the “survival of ITK-SYK+PD-1− lymphoma-bearing mice” value with ITK-SYK^+PD-1− lymphoma (NSG mice, Torin-1 intraperitoneal from day 3, 6 mg/kg daily or 10 mg per kg per day 5 days a week, vs vehicle, p=0.0057) is on record as “significantly prolonged survival”. For the same molecule, in the experiment with ITK-SYK^+PD-1− lymphoma (lymphoma-bearing mice, FIG. 10G), the “mTOR activity within the tumor cells in vivo” value is listed as “blocks mTOR activity”.

On to `CC(=O)O` [acetate], for which the “restoration of decreased H3K27ac signals in ACLY inhibitor-treated lymphoma cells” value with H3K27 acetylation was “not able to restore”.

Take `CO[C@H]1C[C@@H]2CC[C@@H](C)[C@@](O)(O2)C(=O)C(=O)N2CCCC[C@H]2C(=O)O[C@H]([C@H](C)C[C@@H]2CC[C@@H](OCCO)[C@H](OC)C2)CC(=O)[C@H](C)/C=C(\C)[C@@H](O)[C@@H](OC)C(=O)[C@H](C)C[C@H](C)/C=C/C=C/C=C/1C` [everolimus]: in experiment [1], the “viability, division and proliferation of PDCD1-mutant cancer cells (relative division index)” value is “reduced the viability and division”. Further, the “response of stage-matched PD-1 wild-type tumors (relative division index)” value in experiment [2] is on record as “resistant”.
